For the assay, the system named is clinical mastitis. Nature of the assay: Field trials: intramammary infusion in mastitis. Format: in vivo, cow. Particulars: treated one time on the previous day. An excerpt: CDRMREC was infused up the teat duct of all 4 quarters of a cow that had clinical mastitis in the left hindquarter. […] Additionally, because of a differential in the vacuum when milking the cow, infected discharge from the left hindquarter contaminated the left fore quarter which then began to show symptoms of clinical mastitis (flaking in the milk). The left fore quarter had not been infused with erythromycin. […] All signs of swelling were gone. The milk from all quarters was normal and untainted.
Treatment consisted of six 10 ml intramamery ductal infusions of CDRMREC in the afflicted quarter following each milking.
A Jersey cow was suffering from mastitis in the right forequarter and had received an antibiotic infusion in that quarter. […] The next day, after the PM milking, she received only one 10 ml infusion of CDRMREC in each of her quarters.
Her milk appeared normal. Three days later, the swelling was still present and like a flattened golf ball but the milk tested normal.

SMILES strings stand for the structures.

For `CC[C@H]1OC(=O)[C@H](C)[C@@H](O[C@H]2C[C@@](C)(OC)[C@@H](O)[C@H](C)O2)[C@H](C)[C@@H](O[C@@H]2O[C@H](C)C[C@H](N(C)C)[C@H]2O)[C@](C)(O)C[C@@H](C)C(=O)[C@H](C)[C@@H](O)[C@]1(C)O` [erythromycin], the “swelling of afflicted quarter” value is “the swelling still remained”.

For the origin of these results see patent publication US6585988B2, “Reaction product of arginine and p-aminobenzoic acid, cosmetic, and human and animal health compositions thereof” (Epicare Ltd., priority 1998, dated 2003).
